# Measured values: PubChem BioAssay AID2305 (GlaxoSmithKline (GSK), 2010)
# Tested on: P. falciparum 3D7 growth, pLDH absorbance
# Assay: blood-stage malaria parasite growth potency – strain 3D7, dose response (AID 2305)
row,SMILES,IC50 [nM]
1,NC(N)=Nc1nc(-c2cccc(NC(=O)NCCc3c[nH]c4ccc(OCc5ccccc5)cc34)c2)cs1,810
2,CCn1c(O)c(N=NC(=S)N2CCCC2)c2ccccc21,1000
3,CN1CCC(COc2ccc(CN3CCC(NC(=O)c4cccc(Cl)c4)CC3)cc2)CC1,890
4,CN(C)Cc1ccc(-c2ccc3c(Nc4ccc(Oc5ccccn5)cc4)ccnc3c2)o1,160
5,CCC(C)CN1CCN(c2ccc(NC(=O)c3cccs3)cc2)CC1C (stereo not drawn),660
6,CNC(=O)c1ccccc1Nc1nc(Nc2cccc(CS(C)(=O)=O)c2)ncc1C,530
7,Nc1cccc(-c2ccc3ccnc(N)c3c2)c1,800
8,COc1cc2nccc(Nc3cccc(Oc4ccccc4)c3)c2cc1OC,640
9,Clc1cccc(C=NNc2nc(Nc3ccccc3)nc(Nc3ccccc3)n2)c1,840
10,Nc1nc(N)c2c(ccc3c2ccn3CCCC2CCCNC2)n1 (stereo not drawn),900
11,COc1ccc(-c2cccc(NC(=O)c3cccc(C#N)c3)c2)cc1CN1CCC(O)CC1,990
12,NCc1ccc(CNCc2cccc(-c3ccc(-c4nc5ccc(C(F)(F)F)cc5[nH]4)cc3)c2)cc1,260
13,CN(C)CCNCc1cccc(-c2ccc3c(Nc4ccc(Oc5ccccn5)cc4)ccnc3c2)c1,230
14,CC(C)(C)C(=O)Nc1c(-c2cc(=O)oc3cc4c(cc23)CCC4)oc2ccccc12,1260
15,CCCCCN1CCCCC(NS(=O)(=O)c2ccc(C(=O)Nc3ccc(C(F)(F)F)cc3)cc2)C1 (stereo not drawn),770
16,CN1CC=C(c2c[nH]c3ccc(-c4ccccc4)cc23)CC1,770
17,CC(C)c1sc(N2CCCCC2)nc1C(=O)Nc1ccc(F)cc1C(F)(F)F,240
18,N#Cc1cccc(Nc2nccc(NCC(O)c3cccc(C(F)(F)F)c3)n2)c1 (stereo not drawn),550
19,Cc1ccc2c(c1)c(-c1ccccc1)c(-c1ccccc1)n2CC(O)CN1CCN(CC=Cc2ccccc2)CC1 (stereo not drawn),780
20,Oc1ccc(CN2CCN(CCOC(c3ccccc3)c3ccc(Cl)cc3)CC2)cc1Cl (stereo not drawn),860
21,CCOc1cc(Cl)c(C(C)NC(=O)c2ccccc2)cc1OCC (stereo not drawn),880
22,Fc1cc(CN2CCCC2)ccc1OCCCN1CCN(c2cccc(Cl)c2Cl)CC1,1040
23,CS(=O)(=O)CCNCc1cccc(-c2cc3c(Nc4ccc5c(cnn5Cc5ccccc5)c4)ncnc3s2)c1,550
24,CCN1CCC(N(Cc2ccc(-c3ccc(C(F)(F)F)cc3)cc2)C(=O)Cn2c(CCc3cccc(F)c3F)cc(=O)c3ccc(OCc4ccccc4)cc32)CC1,370
25,Cc1cc2nc(-c3cc(-c4cccc(NS(C)(=O)=O)c4)cnc3N)[nH]c2cc1C,670

row,SMILES,IC50 [nM]
1,CO/C(=C\C=C\c1cc2cc(Cl)c(Cl)cc2[nH]1)C(=O)NCCCN1CCCC[C@@H]1C,750
2,CCc1c(CCNC/C=C/C=C/CNCCc2ccc(OC)c(OC)c2CC)ccc(OC)c1OC,970
3,O=C(N[C@@H](CC1CCCCC1)C(=O)NCCN1CCCCC1)c1ccc(O)c(-c2ccc(Cl)c(Cl)c2)c1,150
4,NC1CCCN(Cc2ccc(-c3cccc(-c4nc5ccc(F)cc5[nH]4)c3)cc2)C1 (stereo not drawn),640
5,Cc1cccc2[nH]c(-c3cccc(-c4ccc(NC(=O)COc5ccccc5C(N)=O)cc4)c3)nc12,890
6,Cc1cccnc1CNc1nccc2c(C)c(C)[nH]c12,850
7,N#CCCN1CCN(Cc2cccc(-c3ccc(-c4nc5ccc(C(F)(F)F)cc5[nH]4)cc3)c2)CC1,740
8,Cc1cc(Nc2ccc(Cl)cc2)n2nc(C(F)(F)F)nc2n1,120
9,Oc1ccc2[nH]cc(C3=CCN(Cc4ccccc4)CC3)c2c1,980
10,C=CCC(CC=C)N1C(=O)C(c2ccccc2)(c2ccccc2)N=C1N,660
11,O=C(Nc1nccs1)c1cn(-c2ccccc2)nc1-c1ccc(Cl)s1,970
12,Cc1cc(-c2ccc(NC(=O)N3CCc4cc(Cl)c(N5CCN(C)CC5)cc43)cc2)ccc1C#N,590
13,CCCCNc1cc(NCCCC)c2c(n1)[nH]c1ccccc12,570
14,Cn1nc(C(F)(F)F)cc1-c1ccc(C(=O)NC2CCC(CN3CCC(c4c[nH]c5ccccc45)CC3)CC2)s1 (stereo not drawn),560
15,O=C(Nc1ccc2c(c1)CCN2C1CCN(Cc2ccc(O)cc2)C1)c1ccco1 (stereo not drawn),900
16,Cc1ccc([C@@H]2CC(=O)CC(c3ccccn3)[C@H]2[N+](=O)[O-])cc1 (stereo partly drawn),860
17,Cc1[nH]c(C)c(-c2ccc(OCc3ccc(OC(F)(F)F)cc3)nc2)c(=O)c1Br,140
18,Cc1cc(-c2cc3nc4c(c(=O)n3[nH]2)CCCC4)c(C)o1,820
19,CN=C(NC)c1cccc(NC(=O)C=Cc2ccc(C=CC(=O)Nc3cccc(C(=NC)NC)c3)cc2)c1,160
20,CN(C)CCCNCc1ccc(-c2ccc(CNCCOc3ccccc3)cc2)cc1,20
21,CC(C)Nc1nc(NC2CCCCC2)nc(N2CCCCCCC2)n1,1090
22,CCCCNC(=O)c1cc(CNC2CCCCC2)ccc1-c1cccc(CNCc2ccc(-c3ccccc3)cc2)c1,530
23,CCn1ccc2c3c(N)nc(N)nc3ccc21,310
24,O=S(=O)(NCCN1CCCC1)c1cccc(-c2ccc(CNCc3ccsc3)cc2)c1,800
25,Cc1cc(NC(=O)c2coc3cc(F)c(N4C[C@@H](C)N(C)[C@@H](C)C4)cc23)cnc1-c1ccc(C#N)cc1,700

row,SMILES,IC50 [nM]
1,CCN(CCCN1CCCCC1)c1cc(C)nc(Nc2ccc(C)cc2C(F)(F)F)n1,540
2,COc1cc(NC2=NS(=O)(=O)c3cc(Cl)ccc3N2C)cc(OC)c1OC,420
3,COc1ccc(-c2cnc(N)c(-c3ccc(O)c(OC)c3)c2)cn1,880
4,COc1ccc(-c2nc(NC(=O)Cc3ccc(OC)c(OC)c3)sc2C)cc1,1160
5,CCOc1cc(CC)ccc1C1CCN(CCCCNC(=O)c2ccc(NC(=O)c3ccc(Cl)cc3)cc2)CC1,740
6,Cc1nc(-c2nc(N3CCC(C(N)=O)CC3)ncc2-c2ccsc2)sc1C,900
7,CN1CCN(c2nc(NCCNc3ccc([N+](=O)[O-])cc3)c3ccccc3n2)CC1,1320
8,CCCc1ccc(S(=O)(=O)Nc2ccc3c(c2)CCC3)cc1,880
9,Cc1ccc(-c2nc3ccccc3o2)cc1NCc1cc(Cc2ccccc2)ccc1O,1030
10,CN(C)CCOc1cccc(-c2cnc(N)c(-c3nc4ccc(S(C)(=O)=O)cc4[nH]3)c2)c1,950
11,CC(C)NC[C@@H](O)[C@H](Cc1ccccc1)NC(=O)c1cc2c3c(c1)c(C(C)C)cn3CCS(=O)(=O)N2C,180
12,CC(Cc1ccc(C(=O)N2CCN(C(=O)c3ccc(CC(C)NCCc4cccc(Cl)c4)cc3)CC2)cc1)NCCc1cccc(Cl)c1 (stereo not drawn),680
13,C[C@H](Cc1ccc(C(=O)OCCOC(=O)c2ccc(C[C@@H](C)NC[C@H](O)c3cccc(C(F)(F)F)c3)cc2)cc1)NC[C@H](O)c1cccc(C(F)(F)F)c1,820
14,CC(C)COc1ccc(Cl)cc1Nc1nc(-c2nc3ccccc3[nH]2)cs1,880
15,O=C(C=Cc1cc([N+](=O)[O-])ccc1Cl)NC1CCC(CN2CCC(c3c[nH]c4ccccc34)CC2)CC1 (stereo not drawn),740
16,COc1ccc(Nc2ncc3c(-c4cccc(NC(=O)c5ccccc5)c4)c[nH]c3n2)cc1OC,460
17,O=C(NC1CCC(CCN2Cc3cccc(C(F)(F)F)c3C2)CC1)c1cccc(-c2cccnc2)c1 (stereo not drawn),1020
18,O=C(NCC1CCC(C(=O)O)CC1)c1ccc(/C=C/C(=O)N2CCc3ccccc3C2c2ccc3c(c2)OCO3)cc1 (stereo not drawn),890
19,COc1cc2nc(N3CCC(CNC(=O)c4ccc(C(C)=O)cc4)CC3)nc(N)c2cc1OC,1120
20,O=[N+]([O-])c1cccc(CNCC2CCN(Cc3ccc(Cl)c(Cl)c3)CC2)c1,910
21,COc1cccc(C(=O)C2CC2CN2CC=C(c3c(C)[nH]c4ccccc34)CC2)c1 (stereo not drawn),710
22,COC(=O)c1ccc(CC(C)NCC(O)c2ccc(Cl)c(Cl)c2)cc1 (stereo not drawn),1000
23,O=C(Nc1cccc(-c2nn3ccccc3c2-c2ccnc(Nc3cccc(F)c3)n2)c1)c1c(F)ccc(F)c1Cl,1140
24,CC(NC(=O)c1ccc(O)c(-c2ccc(Cl)c(Cl)c2)c1)C(=O)NC1CCCCC1 (stereo not drawn),840
25,CCN(CCCNc1nc(=S)[nH]c2cc(OC)c(OC)cc12)c1ccccc1,720

row,SMILES,IC50 [nM]
1,CCN(CC)S(=O)(=O)c1ccc(CCOCCCCCNCC(O)c2cc(Cl)c(N)c(Cl)c2)s1 (stereo not drawn),860
2,CC1=C(C(=O)Nc2cc3cn[nH]c3cc2F)C(c2cccc(O)c2F)CC(=O)N1 (stereo not drawn),630
3,CCOC(=O)c1ccc(NC(=O)Nc2ccc(-c3cccc(-c4nc5ccc(F)cc5[nH]4)c3)cc2)cc1,120
4,O=C(NCC1CCC(CNCCc2ccccc2)CC1)Nc1ccc(Cl)c(Cl)c1 (stereo not drawn),740
5,c1ccc(Oc2ccc(Nc3ccnc4cc(-c5ccc(CNCCN6CCOCC6)o5)ccc34)cc2)cc1,440
6,Cc1cccc2[nH]c(-c3ccc(-c4cccc(C(=O)N5CCCCC5C(C)O)c4)s3)nc12 (stereo not drawn),640
7,CNC(=O)C(NC(=O)c1ccccc1C(=O)OC)c1ccccc1 (stereo not drawn),560
8,CCCCc1cc(O)c2c(c1)OC(C)(C)C=C2C1=CCN(Cc2ccccc2)CC1,250
9,COc1ccc(Nc2nccc(NCC(O)c3cccc(C(F)(F)F)c3)n2)cc1 (stereo not drawn),890
10,O=C(Nc1ccc(OC2CCN(Cc3ccsc3)C2)c(Cl)c1)c1ccc(F)cc1 (stereo not drawn),940
11,COc1ccc(CC(C)NCC(O)c2cccc(C(F)(F)F)c2)cc1F (stereo not drawn),830
12,CCC(C)c1ccc(NC(=O)Nc2ccnc3ccccc23)cc1 (stereo not drawn),630
13,CCCN(CCCCCCNCCc1ccc(Cl)cc1)CCc1ccc(O)c(O)c1,940
14,COc1ccc2nc(C)cc(Nc3ccc(Oc4ccc(Cl)c5ccccc45)c(Cl)c3)c2c1,730
15,CC(C)(C)c1ccc(NC(=O)c2ccc(CN3CCCN(Cc4cccc(Cl)c4)CC3)cc2)cc1,970
16,FC(F)(F)c1ccc2nc(-c3cccc(-c4cccc(CNCC5CCCO5)c4)c3)[nH]c2c1 (stereo not drawn),420
17,Cc1cccc2[nH]c(-c3ccc(-c4cccc(CNCCN5CCNCC5)c4)cc3)nc12,1230
18,CCCCCCCCCN(CCC)C(=O)[C@@H]1OC(C(=O)OC(c2ccccc2)c2ccccc2)=C[C@H](NC(=O)OC(C)(C)C)[C@H]1NC(C)=O,640
19,O=C(Cc1ccccc1)NC1(c2ccccc2)CCN(CCc2c[nH]c3ccc(F)cc23)CC1,880
20,CC1CN(c2cc(=O)n(Cc3ccc(NC(=O)Nc4ccc(-c5ccccc5)cc4)cc3)cn2)CC(C)N1 (stereo not drawn),970
21,O=S(=O)(c1ccccc1)C1CC1,720
22,CN(C)CCN(Cc1ccccc1-c1ccc(CNCCc2ccccc2)cc1)C(=O)c1ccccc1,1700
23,CN(C)CCNCc1cccc(-c2ccc3c(Nc4ccc(F)cc4Cl)ccnc3c2)c1,810
